Results on 11 molecules are retold here after ChEMBL document CHEMBL3045715, “Fungicidal Properties of N-(3, 5-Dichlorophenyl)-N-methoxyformamidine and Computer Studies of Its Active Structures” (J Pestic Sci, 1991).

For assay [1], the system named is Botrytis cinerea. The assay can be described thus: Antifungal activity against Botryotinia fuckeliana Bc-44 in kidney bean leaves assessed as reduction of disease diameter lesions at 200 ppm after 4 days. Also on record: scale not given: the % may be the effect or the level left. The assay is classed as functional.
Assay [2] relates to Botrytis cinerea. The assay can be described thus: Antifungal activity against Botryotinia fuckeliana Bc-44 in kidney bean leaves assessed as reduction of disease diameter lesions at 50 ppm after 4 days. The assay is classed as functional. Also on record: scale not given: the % may be the effect or the level left.
Assay [3] deals with Botrytis cinerea. In words: Antifungal activity against benzimidazole-sensitive Botryotinia fuckeliana Bc-9 assessed as inhibition of hyphae extension at 1 ug/ml after 48 hr. Type of assay: functional, organism-based.
Assay [4] relates to Botrytis cinerea. The assay can be described thus: Antifungal activity against benzimidazole-sensitive Botryotinia fuckeliana Bc-9 assessed as distorted and swollen germ tube at 1 ug/ml after 48 hr. The assay is classed as functional, organism-based.
The subject of assay [5] is Botrytis cinerea. The assay can be described thus: Resistant ratio of EC50 for benzimidazole-sensitive Botryotinia fuckeliana Bc-9 to EC50 for benzimidazole-resistant Botryotinia fuckeliana Bc-44. The assay is classed as functional.
The subject of assay [6] is Botrytis cinerea. The assay can be described thus: Antifungal activity against benzimidazole-sensitive Botryotinia fuckeliana Bc-9 assessed as inhibition of radial mycelial growth after 48 hr. The assay is classed as functional, organism-based.
For assay [7], the system named is Botrytis cinerea. The assay can be described thus: Antifungal activity against benzimidazole-resistant Botryotinia fuckeliana Bc-44 assessed as inhibition of radial mycelial growth after 48 hr. The assay is classed as functional, organism-based.
Assay [8] concerns Botrytis cinerea. In words: Antifungal activity against benzimidazole-sensitive Botryotinia fuckeliana Bc-9 assessed as inhibition of hyphae extension at 15 ug/ml after 48 hr. The assay is classed as functional, organism-based.
Assay [9] deals with Botrytis cinerea. The assay can be described thus: Antifungal activity against benzimidazole-sensitive Botryotinia fuckeliana Bc-9 assessed as distorted and swollen germ tube at 15 ug/ml after 48 hr. The assay is classed as functional, organism-based.
Assay [10] relates to Botrytis cinerea. In words: Antifungal activity against benzimidazole-resistant Botryotinia fuckeliana Bc-44 assessed as inhibition of hyphae extension at 15 ug/ml after 48 hr. The assay is classed as functional, organism-based.
In assay [11] the test system is Botrytis cinerea. The assay can be described thus: Antifungal activity against benzimidazole-resistant Botryotinia fuckeliana Bc-44 assessed as distorted and swollen germ tube at 15 ug/ml after 48 hr. The assay is classed as functional, organism-based.
In assay [12] the test system is Botrytis cinerea. In words: Antifungal activity against benzimidazole-resistant Botryotinia fuckeliana Bc-44 assessed as inhibition of conidia germination at 15 ug/ml after 48 hr. The assay is classed as functional, organism-based.

Calls of active or inactive are those of the source. No cut-off for these calls is given here. Where only a bound is given, the exact number is not on record here.

On to `CCONC(=S)Nc1cc(Cl)cc(Cl)c1`, for which the Activity in the assay with Botrytis cinerea [1] and with Botrytis cinerea [2] was <25% throughout.

With `Clc1cc(Cl)cc(Nc2nccs2)c1`, the figures for the Activity in the assay with Botrytis cinerea [1] and in the assay on Botrytis cinerea [2] were 26% and <25%, respectively.

Turning to `CN(C#N)c1cc(Cl)cc(Cl)c1`, the results for the Activity in the assay on Botrytis cinerea [1] and in the assay with Botrytis cinerea [2] were 90% and 26%, respectively.

Regarding `COC(=O)Nc1cc(Cl)cc(Cl)c1`, the Activity with Botrytis cinerea [1] stood at 100%; in the assay on Botrytis cinerea [2], 90%. Further, the inhibition result with Botrytis cinerea [3] and in the assay with Botrytis cinerea [4] was “inactive” each time. For the same molecule, the “Ratio EC50” value with Botrytis cinerea [5] was 25. Also, the EC50 in the assay on Botrytis cinerea [6] is listed as 5 ppm; in the assay on Botrytis cinerea [7], 0.2 ppm.

As for `CCONC(=O)Nc1cc(Cl)cc(Cl)c1`, the Activity in the assay with Botrytis cinerea [1] and in the assay on Botrytis cinerea [2] was <25% throughout.

Regarding `CO/N=C/Nc1cc(Cl)cc(Cl)c1`, the Activity in the assay with Botrytis cinerea [1] came to 100%; in the assay on Botrytis cinerea [2], 90%. The inhibition entry in the assay with Botrytis cinerea [8] and in the assay with Botrytis cinerea [9] was “inactive” each time. The inhibition entry in the assay on Botrytis cinerea [10] and in the assay with Botrytis cinerea [11] was “Active” in each case. Also, in the assay on Botrytis cinerea [12], the result was inactive. Also, the “Ratio EC50” value in the assay on Botrytis cinerea [5] came out at 10. Also, the figures for the EC50 in the assay with Botrytis cinerea [6] and with Botrytis cinerea [7] were 30 ppm and 3 ppm, respectively.

As to `CCO/N=C/Nc1cc(Cl)cc(Cl)c1`, the Activity in the assay with Botrytis cinerea [1] was 100%; with Botrytis cinerea [2] it was 90%.

`CCO/N=C(/Nc1cc(Cl)cc(Cl)c1)SC`: the Activity in the assay with Botrytis cinerea [1] was 26%; in the assay on Botrytis cinerea [2], <25%.

`N#CNc1cc(Cl)cc(Cl)c1`: the Activity with Botrytis cinerea [1] and in the assay on Botrytis cinerea [2] was <25% throughout.

In the case of `CCO/N=C(\C)Nc1cc(Cl)cc(Cl)c1`, the values for the Activity with Botrytis cinerea [1] and with Botrytis cinerea [2] were 100% and 50%, respectively.

With `CNC(=O)Oc1nc2ccccc2[nH]1`, the “Ratio EC50” value with Botrytis cinerea [5] is given as 0.0005. Also, the EC50 in the assay with Botrytis cinerea [6] was 0.05 ppm; with Botrytis cinerea [7] it was > 100 ppm.
